Reference: patent US6224887A, “Antifungal nail lacquer and method using same” (MacroChem Corporation, priority 1999, dated 2001)
Like-named read-outs stand apart in the source and are kept apart here.

Settings: lacquer, 1200 h
Description: Using the above formulation with 5% Econazole and 53% ethanol, stability testing was performed. […] In addition, gas chromatography quantitative analysis was conducted on samples stored in glass containers for 50 days at 40° C./75%RH at varying pH (5.2, 6.83, 12.2; by addition of acid or base, as necessary).
The analytical test procedure involves a simple direct dilution and injection method for determining levels of both antifungal agent and enhancer compound in the same chromatogram, i.e., without separation steps. […] Specifically, a Hewlett-Packard Model 5890 Chromatograph with a Hewlett-Packard 50+(crosslinked 50% phenylmethylsiloxane), 30 m, 0.32 mm ID, 0.50μ film (Cat. #19091L) column and Model 7673 Autoinjector, operating in split mode (split flow 0.7 mL/min; split ratio 0.652:1), using methanol as wash solvent and hexanophenone as internal standard, was used for the analysis. In Table 2 the results are reported for the average of six injections.

Clc1ccc(COC(Cn2ccnc2)c2ccc(Cl)cc2Cl)cc1 (stereo not drawn) [Econazole]
Econazole Assay (pH 5.2): 94.29%
Econazole Assay (pH 6.83): 96.67%
Econazole Assay (pH 12.2): 97.60%

CCCCCCCCCC1OCCO1 [SEPA, 2-n-nonyl-1,3-dioxolane]
SEPA assay (pH 5.2): 93.85%
SEPA assay (pH 6.83): 98.41%
SEPA assay (pH 12.2): 99.36%
